Source: patent US8530648B2, “Diaza-spiro[5.5]undecanes” (Novartis AG, priority 2009, dated 2013)

Legend:
hOx2R = hOx2R (Homo sapiens (Human), UniProt O43614); assay: Calcium accumulation in cells (FLIPR), hOx2R; format: cell-based; conditions: for Ki: inhibition of orexin A induced calcium accumulation, Cheng and Prusoff correction; for inhibition at 10 µM: measured at a concentration of 10 μM of compound
Protocol: (§1) Calcium Accumulation in Cells (FLIPR):
(§2) Cells expressing human orexin 1 or human orexin 2 receptors, were seeded at 8,000 cells/well in 384 well black-walled clear bottom, poly-D-lysine coated plates. After 24 h, the medium was removed and cells were washed once with phosphate buffered saline and serum-deprived overnight in assay buffer (130 mM NaCl, 5.4 mM KCl, 1.8 mM CaCl2, 0.8 mM MgSO4, 0.9 mM NaH2PO4, 25 mM glucose, 20 mM HEPES, pH 7.4) containing bovine serum albumin (1% w/v).
(§3) On the day of the experiment, the cells seeded in black plates were treated with assay buffer containing the Ca^2+ sensitive fluorescent dye Fluo-4-AM (2 μM), and probenecid (0.1 mM). After 1 h plates were washed twice with, and resuspended in, assay buffer containing probenecid (0.1 mM) using a multi plate washer. […] Fluorescence measurements were then continued every 1 S for 120 S followed by every 4 S for 240 S.
(§4) The measurements were typically made in two sequences:
(§5) Compounds of formula I were tested usually in a concentration range from 10^−9 M to 10^−5 M.
(§6) In the second round, performed one hour later (to allow for equilibration), Orexin A was tested either in the absence (calibration curves, Orexin A agonist controls) or in the presence of compounds of formula I to determine antagonism.

hOx1R = hOx1R (Homo sapiens (Human), UniProt O43613); assay: Calcium accumulation in cells (FLIPR), hOx1R; format: cell-based; conditions: for Ki: inhibition of orexin A induced calcium accumulation, Cheng and Prusoff correction; for inhibition at 10 µM: measured at a concentration of 10 μM of compound
Chain of hOx1R (O43613 whole entry): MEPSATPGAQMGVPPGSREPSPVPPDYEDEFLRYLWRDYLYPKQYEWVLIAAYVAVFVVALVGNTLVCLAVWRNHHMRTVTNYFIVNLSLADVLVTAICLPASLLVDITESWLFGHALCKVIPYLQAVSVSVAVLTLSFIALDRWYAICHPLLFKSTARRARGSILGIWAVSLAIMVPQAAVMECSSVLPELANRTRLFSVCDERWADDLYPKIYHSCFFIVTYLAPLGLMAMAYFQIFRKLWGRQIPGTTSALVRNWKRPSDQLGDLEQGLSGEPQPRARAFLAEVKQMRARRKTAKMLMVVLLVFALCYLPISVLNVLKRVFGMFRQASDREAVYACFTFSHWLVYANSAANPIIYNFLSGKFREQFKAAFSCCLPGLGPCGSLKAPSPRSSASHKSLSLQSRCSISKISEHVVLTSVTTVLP
Protocol: as §1, §2, §3, §4, §5, §6

Chain of hOx2R (O43614 whole entry): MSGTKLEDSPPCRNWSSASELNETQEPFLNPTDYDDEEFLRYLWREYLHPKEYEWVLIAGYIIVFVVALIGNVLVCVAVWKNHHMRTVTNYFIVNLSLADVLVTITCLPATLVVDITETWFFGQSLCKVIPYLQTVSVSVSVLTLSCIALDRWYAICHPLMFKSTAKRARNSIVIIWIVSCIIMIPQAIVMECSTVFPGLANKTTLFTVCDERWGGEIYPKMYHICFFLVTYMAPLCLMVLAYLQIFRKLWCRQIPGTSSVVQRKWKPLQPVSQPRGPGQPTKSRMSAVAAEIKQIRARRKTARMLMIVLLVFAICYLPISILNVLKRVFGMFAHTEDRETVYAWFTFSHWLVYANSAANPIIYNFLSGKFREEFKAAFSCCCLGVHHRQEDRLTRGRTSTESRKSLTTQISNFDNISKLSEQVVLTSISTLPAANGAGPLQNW

SMILES | Ki (hOx2R) | Ki (hOx1R) | inhibition at 10 µM (hOx1R) | inhibition at 10 µM (hOx2R)
Cc1cc(C)cc(CN2CCCC3(CCN(c4cnc5ccccc5n4)CC3)C2=O)c1 [Example 16, 2-(3,5-dimethylbenzyl)-9-(quinoxalin-2-yl)-2,9-diazaspiro[5.5]undecan-1-one] | 0.113 µM | 1.19 µM | – | –
Cc1[nH]c2ccccc2c1CN1CCCC2(CCN(c3cnc4ccccc4n3)CC2)C1=O [Example 133, 2-((2-methyl-1H-indol-3-yl)methyl)-9-(quinoxalin-2-yl)-2,9-diazaspiro[5.5]undecan-1-one] | 0.244 µM | 1.15 µM | – | –
Cc1nc(-c2ccccc2)oc1CN1CCCC2(CCN(c3cnc4ccccc4n3)CC2)C1=O [Example 119, 2-((4-methyl-2-phenyloxazol-5-yl)methyl)-9-(quinoxalin-2-yl)-2,9-diazaspiro[5.5]undecan-1-one] | 0.291 µM | 1.9 µM | – | –
CN1CCOc2c(CN3CCCC4(CCN(c5cnc6ccccc6n5)CC4)C3=O)cccc21 [Example 144, 2-((4-methyl-3,4-dihydro-2H-benzo[b][1,4]oxazin-8-yl)methyl)-9-(quinoxalin-2-yl)-2,9-diazaspiro[5.5]undecan-1-one] | 0.596 µM | 3.25 µM | – | –
O=C1N(Cc2noc3ccccc23)CCCC12CCN(c1cnc3ccccc3n1)CC2 [Example 36, 2-(benzo[d]isoxazol-3-ylmethyl)-9-(quinoxalin-2-yl)-2,9-diazaspiro[5.5]undecan-1-one] | 0.197 µM | 0.591 µM | – | –
O=C1N(Cc2cccc(-n3cccc3)c2)CCCC12CCN(c1cnc3ccccc3n1)CC2 [Example 35, 2-(3-(1H-pyrrol-1-yl)benzyl)-9-(quinoxalin-2-yl)-2,9-diazaspiro[5.5]undecan-1-one] | 0.272 µM | – | 26% | –
Cc1ccc(C)c(CN2CCCC3(CCN(c4cnc5ccccc5n4)CC3)C2=O)c1 [Example 20, 2-(2,5-dimethylbenzyl)-9-(quinoxalin-2-yl)-2,9-diazaspiro[5.5]undecan-1-one] | 0.205 µM | 0.945 µM | – | –
CC(C)c1nc(CN2CCCC3(CCN(c4cnc5ccccc5n4)CC3)C2=O)co1 [Example 176, 2-((2-isopropyloxazol-4-yl)methyl)-9-(quinoxalin-2-yl)-2,9-diazaspiro[5.5]undecan-1-one] | – | – | < 10% | < 10%
O=C1N(Cc2cccc(Cl)c2)CCCC12CCN(c1nc3ccccc3[nH]1)CC2 [Example 28, 9-(1H-benzo[d]imidazol-2-yl)-2-(3-chlorobenzyl)-2,9-diazaspiro[5.5]undecan-1-one] | 0.16 µM | – | 33% | –
O=C1N(Cc2c[nH]c3ccccc23)CCCC12CCN(c1nc3ccccc3s1)CC2 [Example 52, 2-((1H-indol-3-yl)methyl)-9-(benzo[d]thiazol-2-yl)-2,9-diazaspiro[5.5]undecan-1-one] | 0.178 µM | 1.36 µM | – | –
O=C1N(Cc2c[nH]c3ccccc23)CCCC12CCN(c1nc3cc(Cl)ccc3o1)CC2 [Example 131, 2-((1H-indol-3-yl)methyl)-9-(5-chlorobenzo[d]oxazol-2-yl)-2,9-diazaspiro[5.5]undecan-1-one] | 0.524 µM | – | 48% | –
Cn1nc(CN2CCCC3(CCN(c4cnc5ccccc5n4)CC3)C2=O)c2ccccc21 [Example 142, 2-((1-methyl-1H-indazol-3-yl)methyl)-9-(quinoxalin-2-yl)-2,9-diazaspiro[5.5]undecan-1-one] | 0.212 µM | 0.925 µM | – | –
O=C1N(Cc2c[nH]c3ccccc23)CCCC12CCN(c1cc(-n3ccnc3)ncn1)CC2 [Example 158, 9-(6-(1H-imidazo-1-yl)pyrimidin-4-yl)-2-((1H-indol-3-yl)methyl)-2,9-diazaspiro[5.5]undecan-1-one] | 0.545 µM | – | 21% | –
O=C1CCCC2(CCN(c3cnc4ccccc4n3)CC2)N1Cc1ccccc1 [Example 134, 1-benzyl-9-(quinoxalin-2-yl)-1,9-diazaspiro[5.5]undecan-2-one] | 0.161 µM | 1.44 µM | – | –
Cc1cc(CN2CCCC3(CCN(c4cnc5ccccc5n4)CC3)C2=O)on1 [Example 105, 2-((3-methylisoxazol-5-yl)methyl)-9-(quinoxalin-2-yl)-2,9-diazaspiro[5.5]undecan-1-one] | 1.38 µM | – | 47% | –
O=C1N(Cc2ccc(-n3cncn3)cc2)CCCC12CCN(c1cnc3ccccc3n1)CC2 [Example 81, 2-(4-(1H-1,2,4-triazol-1-yl)benzyl)-9-(quinoxalin-2-yl)-2,9-diazaspiro[5.5]undecan-1-one] | 1.58 µM | – | 13% | –

SMILES | Ki (hOx2R) | Ki (hOx1R) | inhibition at 10 µM (hOx1R) | inhibition at 10 µM (hOx2R)
O=C1N(Cc2nccc3ccccc23)CCCC12CCN(c1cnc3ccccc3n1)CC2 [Example 93, 2-(isoquinolin-1-ylmethyl)-9-(quinoxalin-2-yl)-2,9-diazaspiro[5.5]undecan-1-one] | 0.158 µM | 1.31 µM | – | –
O=C1N(Cc2nnc3ccccn23)CCCC12CCN(c1cnc3ccccc3n1)CC2 [Example 75, 2-([1,2,4]triazolo[4,3-a]pyridin-3-ylmethyl)-9-(quinoxalin-2-yl)-2,9-diazaspiro[5.5]undecan-1-one] | – | – | 22% | 35%
Cc1cc(C)nc(CN2CCCC3(CCN(c4cnc5ccccc5n4)CC3)C2=O)c1 [Example 106, 2-((4,6-dimethylpyridin-2-yl)methyl)-9-(quinoxalin-2-yl)-2,9-diazaspiro[5.5]undecan-1-one] | 1.36 µM | – | 35% | –
O=C1CCCC2(CCN(c3nnc(-c4ccccc4)o3)CC2)N1Cc1cccc2[nH]ccc12 [Example 137, 1-((1H-indol-4-yl)methyl)-9-(5-phenyl-1,3,4-oxadiazol-2-yl)-1,9-diazaspiro[5.5]undecan-2-one] | 0.656 µM | 0.509 µM | – | –
Cc1oc(-c2ccoc2)nc1CN1CCCC2(CCN(c3cnc4ccccc4n3)CC2)C1=O [Example 116, 2-((2-(furan-3-yl)-5-methyloxazol-4-yl)methyl)-9-(quinoxalin-2-yl)-2,9-diazaspiro[5.5]undecan-1-one] | – | 3.79 µM | – | 53%
O=C1N(Cc2nnnn2-c2ccccc2)CCCC12CCN(c1cnc3ccccc3n1)CC2 [Example 122, 2-((1-phenyl-1H-tetrazol-5-yl)methyl)-9-(quinoxalin-2-yl)-2,9-diazaspiro[5.5]undecan-1-one] | 0.725 µM | – | 31% | –
Cc1cc(CN2CCCC3(CCN(c4cnc5ccccc5n4)CC3)C2=O)nn1C [Example 84, 2-((1,5-dimethyl-1H-pyrazol-3-yl)methyl)-9-(quinoxalin-2-yl)-2,9-diazaspiro[5.5]undecan-1-one] | – | – | 40% | 46%
O=C1N(Cc2cccnc2)CCCC12CCN(c1cnc3ccccc3n1)CC2 [Example 64, 2-(pyridin-3-ylmethyl)-9-(quinoxalin-2-yl)-2,9-diazaspiro[5.5]undecan-1-one] | 0.718 µM | – | 32% | –
O=C1N(Cc2ccnc(N3CCOCC3)c2)CCCC12CCN(c1cnc3ccccc3n1)CC2 [Example 56, 2-((2-morpholinopyridin-4-yl)methyl)-9-(quinoxalin-2-yl)-2,9-diazaspiro[5.5]undecan-1-one] | 0.483 µM | 2.04 µM | – | –
Cc1ccc2nc(N3CCC4(CCCN(Cc5c[nH]c6ccccc56)C4=O)CC3)sc2c1 [Example 153, 2-((1H-indol-3-yl)methyl)-9-(6-methylbenzo[d]thiazol-2-yl)-2,9-diazaspiro[5.5]undecan-1-one] | – | – | 22% | 35%
Cc1ccc2[nH]c(N3CCC4(CCCN(Cc5c[nH]c6ccccc56)C4=O)CC3)nc2c1 [Example 163, 2-((1H-indol-3-yl)methyl)-9-(5-methyl-1H-benzo[d]imidazol-2-yl)-2,9-diazaspiro[5.5]undecan-1-one] | 0.483 µM | – | 23% | –
O=C1N(Cc2ccncc2)CCCC12CCN(c1cnc3ccccc3n1)CC2 [Example 67, 2-(pyridin-4-ylmethyl)-9-(quinoxalin-2-yl)-2,9-diazaspiro[5.5]undecan-1-one] | – | – | 11% | 27%
O=C1N(Cc2ccccc2-n2cccn2)CCCC12CCN(c1cnc3ccccc3n1)CC2 [Example 85, 2-(2-(1H-pyrazol-1-yl)benzyl)-9-(quinoxalin-2-yl)-2,9-diazaspiro[5.5]undecan-1-one] | 0.822 µM | – | 15% | –
Cc1nc2ccccn2c1CN1CCCC2(CCN(c3cnc4ccccc4n3)CC2)C1=O [Example 71, 2-((2-methylimidazo[1,2-a]pyridin-3-yl)methyl)-9-(quinoxalin-2-yl)-2,9-diazaspiro[5.5]undecan-1-one] | 0.466 µM | 2.16 µM | – | –
Cn1ncc2c(CN3CCCC4(CCN(c5cnc6ccccc6n5)CC4)C3=O)cccc21 [Example 108, 2-((1-methyl-1H-indazol-4-yl)methyl)-9-(quinoxalin-2-yl)-2,9-diazaspiro[5.5]undecan-1-one] | 0.196 µM | 1.4 µM | – | –
O=C1N(Cc2cnc3ccccn23)CCCC12CCN(c1cnc3ccccc3n1)CC2 [Example 70, 2-(imidazo[1,2-a]pyridin-3-ylmethyl)-9-(quinoxalin-2-yl)-2,9-diazaspiro[5.5]undecan-1-one] | 0.258 µM | 3.43 µM | – | –
